Target: T1, CDSecA2 (Clostridioides difficile, UniProt Q183M9)
T1 construct: gene secA2; pMCSG7, E. coli BL21(DE3); His tag cut by TEV, extra N-terminal SNAAA kept; monomer in crystal
Test: X-ray crystallography (cocrystallization)
Assay type: binding
Details: 2 mM ATP-γ-S, 4 mM MgCl2, pH 8.3, 20 °C; active site between NBD1 and NBD2, Walker A/B

T1 sequence (Q183M9 whole entry): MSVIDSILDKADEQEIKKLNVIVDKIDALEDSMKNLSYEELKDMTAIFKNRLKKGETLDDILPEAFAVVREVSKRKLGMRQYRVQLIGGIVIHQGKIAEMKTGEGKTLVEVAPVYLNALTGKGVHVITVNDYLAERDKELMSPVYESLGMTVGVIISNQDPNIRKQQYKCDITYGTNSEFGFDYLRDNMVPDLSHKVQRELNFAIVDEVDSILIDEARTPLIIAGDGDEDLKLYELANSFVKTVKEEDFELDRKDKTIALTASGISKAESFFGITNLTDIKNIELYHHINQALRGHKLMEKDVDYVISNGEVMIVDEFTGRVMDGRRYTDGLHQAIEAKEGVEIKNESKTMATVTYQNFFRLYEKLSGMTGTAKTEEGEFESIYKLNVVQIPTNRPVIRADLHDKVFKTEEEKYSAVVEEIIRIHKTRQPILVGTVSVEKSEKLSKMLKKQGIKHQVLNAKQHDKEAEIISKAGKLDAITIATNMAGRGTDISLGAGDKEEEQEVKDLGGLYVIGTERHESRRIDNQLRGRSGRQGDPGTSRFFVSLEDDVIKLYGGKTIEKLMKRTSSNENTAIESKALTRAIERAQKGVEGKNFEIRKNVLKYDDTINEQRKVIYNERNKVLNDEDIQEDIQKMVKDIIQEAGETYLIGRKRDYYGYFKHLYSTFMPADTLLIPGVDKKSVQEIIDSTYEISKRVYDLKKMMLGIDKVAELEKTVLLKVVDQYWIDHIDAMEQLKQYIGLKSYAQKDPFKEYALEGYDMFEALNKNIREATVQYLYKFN

**Q.** For Nc1ncnc2c1ncn2[C@@H]1O[C@H](COP(=O)(O)OP(=O)(O)OP(O)(O)=S)[C@@H](O)[C@H]1O [ATP-γ-S, adenosine-5′-(γ-thio)-triphosphate], which “X-ray crystallography (cocrystallization)” value is on record?
**A.** Its value is “the electron density map for the ATP-γ-S ligand unambiguously positioned it in the active site”.

From publication PMC7503281, “The Structure of Clostridioides difficile SecA2 ATPase Exposes Regions Responsible for Differential Target Recognition of the SecA1 and SecA2-Dependent Systems” (International Journal of Molecular Sciences, 2020)
